Assay results published in US20240002491A1, “METHODS FOR SELECTING PATIENTS FOR TREATMENT WITH AN NGF ANTAGONIST” (Regeneron Pharmaceuticals, Inc., priority 2022, published 2024).

System: adults with moderate-to-severe chronic pain associated with osteoarthritis (OA) of the knee or hip
Assay: FACT OA1 (NCT03161093, R475-OA-1611) Phase 3 trial, WOMAC pain and physical function
Type: in vivo, human
Conditions: FACT OA1, Week 16; fasinumab 1 mg Q4W, naproxen 2 × 500 mg/day
Text: NCT02683239 (R475-PN-1523, or “FACT LTS”), NCT03161093 (R475-OA-1611, or “FACT OA1”), and NCT03304379 (R475-OA-1688, or “FACT OA2”) each were Phase 3 trials evaluating fasinumab in adults with moderate-to-severe chronic pain associated with osteoarthritis (OA) of the knee or hip. All three of these trials enrolled patients with OA of the knee or hip who had inadequate pain relief with acetaminophen and were intolerant to or had inadequate pain relief with opioids, or were unwilling or unable to take opioids. Complete inclusion and exclusion criteria for the trials are described at clinicaltrials.gov/ct2/show/NCT03161093, clinicaltrials.gov/ct2/show/NCT03304379, and clinicaltrials.gov/ct2/show/NCT02683239.
FACT OA1 and FACT OA2 assessed the efficacy of fasinumab in comparison to nonsteroidal anti-inflammatory drugs (NSAIDs; naproxen, diclofenac, or celecoxib) for treatment of OA. FACT OA1 includes results from a total of 1,801 patients randomized to one of four treatment arms: fasinumab 1 mg SC once every 8 weeks (Q8W) (n=304), fasinumab 1 mg SC once every 4 weeks (Q4W) (n=639), naproxen 500 mg twice daily (n=644), or placebo (n=214). In FACT OA2, patients were randomized into one of six treatment groups: fasinumab 1 mg SC once every 4 weeks (Q4W), fasinumab 3 mg SC once every 4 weeks (Q4W), fasinumab 6 mg SC once every 8 weeks (Q8W), celecoxib 200 mg once daily, diclofenac 75 mg twice daily, or placebo. While the FACT OA2 trial was still ongoing, enrollment into the fasinumab 3 mg Q4W and 6 mg Q8W groups was stopped for safety considerations; patients enrolled in those dose regimens discontinued study drug and entered the post-treatment follow-up period.
Fasinumab patients in both trials also reported improvements in their pain and physical function (WOMAC score) compared to those treated with the highest-approved prescription doses of NSAIDS.

Which “WOMAC pain, change from baseline” value does the source give for `COc1ccc2cc([C@H](C)C(=O)O)ccc2c1` [Naproxen, naproxen, reference compound] here?
Its value is −33%.

What about the “WOMAC pain, change from baseline (score, in brackets)” value of the same compound?
Its value is “(−2.13)”.

And the “WOMAC physical function, change from baseline” value?
The value was −31%.

And the “WOMAC physical function, change from baseline (score, in brackets)” value?
The value was “(−1.98)”.
